Experiment [1] deals with N2a. Put plainly: Neuroprotective activity against tunicamycin-induced ER stress in mouse Neuro2a cells assessed as cell viability at 10 to 100 ug/ml pre-incubated for 2 hrs followed by tunicamycin addition for 22 hrs by MTT assay. It counts as functional, cell-based. The settings on record: dose 10-100 µg/ml, time 24.0 hrs.
Experiment [2] concerns N2a. The experiment can be described thus: Neuroprotective activity against thapsigargin-induced ER stress in mouse Neuro2a cells assessed as cell viability at 10 to 100 ug/ml pre-incubated for 2 hrs followed by thapsigargin addition for 22 hrs by MTT assay. It counts as functional, cell-based. The settings on record: dose 10-100 µg/ml, time 24.0 hrs. On the technique in general: Formazan colour is commonly taken as a measure of viable cells.

For the molecule `CCCCCCCCCCCCCCCC(=O)OCc1cc(OC)c(C[C@H]2O[C@]2(C)CC(=O)C=C(C)C)c(O)c1C=O` (racemic), the Activity result in the experiment with N2a [1] and in the experiment with N2a [2] was “Not active; No Protective Activity” each time.
Turning to `CCCCCCCCCCCCCCCC(=O)OCc1cc(OC)c2c(c1C=O)OC(/C(C)=C/C(=O)C=C(C)C)C2` (racemic), the Activity entry in the experiment on N2a [1] and with N2a [2] was “Active; Significant Protective Activity” throughout.
For `CCCCCCCCCCCCCCCC(=O)OCc1cc(OC)c2c(c1C=O)OC(/C(C)=C\C(=O)C=C(C)C)C2` (racemic), the Activity entry in the experiment on N2a [1] and with N2a [2] was “Active; Significant Protective Activity” each time.

The values above are taken from ChEMBL document CHEMBL6153038, “Uncovering Hericenones from the Fruiting Bodies of Hericium erinaceus through Interdisciplinary Collaboration” (J Nat Prod, 2025).
